The values below come from ChEMBL document CHEMBL1155220, “The medicinal chemistry of dengue fever” (J Med Chem, 2009).

Test [1] can be described thus: Inhibition of Dengue virus NS3 helicase.
In test [2] the test system is Dengue virus. Kind of test: Inhibition of Dengue virus NS3 helicase at 100 uM.
Test [3] can be described thus: Inhibition of Dengue virus IMPDH.
Test [4] relates to Dengue virus. As to the kind of experiment: Antiviral activity against Dengue virus. In kind it is functional, organism-based.
The subject of test [5] is Dengue virus. As to the kind of experiment: Antiviral activity against Dengue virus by cell based assay. It counts as functional, organism-based.
Test [6] in a line: Inhibition of Dengue virus N7-methyl transferase.
Test [7] can be described thus: Inhibition of Dengue virus 2'-O-methyl transferase.
Test [8] relates to Dengue virus. As to the kind of experiment: Antiviral activity against Dengue virus assessed as inhibition of virus-induced cytopathic effect by cell based assay. It counts as functional, organism-based.
The test system of test [9] is Dengue virus. As to the kind of experiment: Antiviral activity against Dengue virus assessed as reduction of virus yield by cell based assay. In kind it is functional, organism-based.
Test [10] is described as follows: Inhibition of Dengue virus sEnvelope glycoprotein binding to immobilized heparin.

Converted amounts (≈) assume the structure as drawn.

As to `CO[C@@H]1[C@H](O)[C@@H](CO)O[C@H]1n1cnc2c(=O)[nH][nH]c(=O)c21`, in test [1], it took 30 µM to reach half-maximal inhibition (IC50). Besides, the inhibition in the test on Dengue virus [2] worked out at 30%.

`C#Cc1c(C(N)=O)ncn1[C@@H]1O[C@H](CO)[C@@H](O)[C@H]1O`: the IC50 in test [3] was found to be 38 mg/L (≈ 142 µM).

The compound `CCN(CCCN(CC)C(=O)c1ccc(O)cc1)C(=O)c1ccc(O)cc1` gave an IC50 in the test on Dengue virus [4] of 2000 µM. This lies in the millimolar range. The same measure, in the same setting: under `CN(CCCNC(=O)c1ccc(O)cc1)CCCNC(=O)c1ccc(O)cc1` stands 2000 µM; under `O=C(O)/C=C/c1ccc(OS(=O)(=O)O)cc1`, 2000 µM; under `CN(CCCNC(=O)c1ccc(O)cc1)CCCNC(=O)c1ccc2cc(O)ccc2c1`, 294 µM.

In turn, `CCN(CCOC(=O)/C=C/c1ccc(O)cc1)Cc1cc(Cl)ccc1O` yielded an IC50 with Dengue virus [4] of 46 µM. This IC50 lies about 6.4-fold lower than the previous one. As to `O=c1cnn([C@@H]2O[C@H](CO)[C@@H](O)[C@H]2O)c(=O)[nH]1` [6-AZAURIDINE], the concentration giving a half-maximal response (EC50) in the test with Dengue virus [5] stood at 0.1 mg/L.

As to `O=C(O)C1=CC(=C(c2ccc(O)c(C(=O)O)c2)c2ccc(O)c(C(=O)O)c2)C=CC1=O` [AURINTRICARBOXYLIC ACID], the values for the IC50 in [6] and in test [7] were 2.3 µM and 127 µM, respectively. Take `C[C@@]1(O)[C@H](O)[C@@H](CO)O[C@H]1n1ccc2c(N)ncnc21` [BETA-2'-C-METHYL-7-DEAZA-ADENOSINE]: the EC50 in the test with Dengue virus [5] amounted to 15 µM. `O[C@H]1[C@H](O)[C@@H](O)CN2CC[C@H](O)[C@H]12` [CASTANOSPERMINE] yielded an IC50 with Dengue virus [4] of 1 µM. `CN[C@@H]1[C@@H](O)[C@@H](O[C@@H]2[C@@H](O)[C@H](O[C@H]3O[C@H]([C@@H](C)O)[C@@H](O)[C@H](O)[C@H]3N)[C@@H](N)C[C@H]2N)OC[C@]1(C)O` [GENETICIN]: the EC50 amounted to 6 µM in the test with Dengue virus [8] and 4 µM in the test on Dengue virus [9]. In the case of `COc1cc(NC(=O)Nc2cccc(CNC(=O)O[C@H]3CCOC3)c2)ccc1-c1cnco1` [MERIMEPODIB], the IC50 in the test with Dengue virus [4] was found to be 8 µM. `COc1c(C)c2c(c(O)c1C/C=C(\C)CCC(=O)O)C(=O)OC2` [MYCOPHENOLIC ACID] had a half-inhibitory concentration (IC50) in test [3] of 0.1 mg/L (≈ 0.312 µM).

`NC(=O)c1ncn([C@@H]2O[C@H](CO)[C@@H](O)[C@H]2O)n1` [RIBAVIRIN]: in the test with Dengue virus [4], the EC50 stood at 49 mg/L (≈ 201 µM). Besides, in test [3], the IC50 was 1.6 mg/L (≈ 6.55 µM). In [10], `Cc1ccc(C(=O)Nc2ccc(S(=O)(=O)O)c3cc(S(=O)(=O)O)cc(S(=O)(=O)O)c23)cc1NC(=O)c1cccc(NC(=O)Nc2cccc(C(=O)Nc3cc(C(=O)Nc4ccc(S(=O)(=O)O)c5cc(S(=O)(=O)O)cc(S(=O)(=O)O)c45)ccc3C)c2)c1` [SURAMIN] displayed an IC50 of 0.7 µM.
